PubChem BioAssay (NCI)
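Protocol summary: plate cells (96-well), add compound at 5 concentrations, incubate 48 h, interpolate endpoints linearly. GI50: concentration for 50% inhibition of growth. TGI denotes the concentration required for complete inhibition of growth.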

What was measured:
Assay in all cases: NCI-60 cell line screen, 48 h
NCI-H522 lung = tested on: NCI-H522 lung
CAKI-1 renal = tested on: CAKI-1 renal
NCI/ADR-RES ovarian = tested on: NCI/ADR-RES ovarian
SF-539 CNS = tested on: SF-539 CNS
SW-620 colon = tested on: SW-620 colon
HOP-92 NSCLC = tested on: HOP-92 NSCLC
IGROV1 ovarian = tested on: IGROV1 ovarian
COLO 205 colon = tested on: COLO 205 colon
UO-31 renal = tested on: UO-31 renal
786-0 renal = tested on: 786-0 renal
CCRF-CEM leukemia = tested on: CCRF-CEM leukemia
SK-MEL-28 melanoma = tested on: SK-MEL-28 melanoma
SF-295 CNS = tested on: SF-295 CNS
K-562 leukemia = tested on: K-562 leukemia
NCI-H460 lung = tested on: NCI-H460 lung
OVCAR-3 ovarian = tested on: OVCAR-3 ovarian
SK-MEL-5 melanoma = tested on: SK-MEL-5 melanoma
SN12C renal = tested on: SN12C renal
HCT-15 colon = tested on: HCT-15 colon
TK-10 renal = tested on: TK-10 renal
HOP-62 NSCLC = tested on: HOP-62 NSCLC
SF-268 CNS = tested on: SF-268 CNS
MALME-3M melanoma = tested on: MALME-3M melanoma
MCF7 breast = tested on: MCF7 breast
ACHN renal = tested on: ACHN renal
HCT-116 colon = tested on: HCT-116 colon
A498 renal = tested on: A498 renal
M14 melanoma = tested on: M14 melanoma
NCI-H23 lung = tested on: NCI-H23 lung
MDA-MB-435 = tested on: MDA-MB-435
EKVX NSCLC = tested on: EKVX NSCLC
SK-OV-3 ovarian = tested on: SK-OV-3 ovarian
OVCAR-8 ovarian = tested on: OVCAR-8 ovarian
BT-549 breast = tested on: BT-549 breast
T-47D breast = tested on: T-47D breast
HS 578T breast = tested on: HS 578T breast
NCI-H226 lung = tested on: NCI-H226 lung
DU-145 prostate = tested on: DU-145 prostate
RXF 393 renal = tested on: RXF 393 renal
KM12 colon = tested on: KM12 colon
SNB-19 CNS = tested on: SNB-19 CNS
OVCAR-4 ovarian = tested on: OVCAR-4 ovarian
MOLT-4 leukemia = tested on: MOLT-4 leukemia
MDA-MB-231 breast = tested on: MDA-MB-231 breast
UACC-257 melanoma = tested on: UACC-257 melanoma
HT29 colon = tested on: HT29 colon
UACC-62 melanoma = tested on: UACC-62 melanoma
LOX IMVI melanoma = tested on: LOX IMVI melanoma
U251 CNS = tested on: U251 CNS
A549 NSCLC = tested on: A549 NSCLC
PC-3 prostate = tested on: PC-3 prostate
OVCAR-5 ovarian = tested on: OVCAR-5 ovarian
HL-60(TB) leukemia = tested on: HL-60(TB) leukemia

## COc1cc(/C=C2\CC3C4CCC5=CC(=O)CC[C@]5(C)C4CC[C@]3(C)C2=O)ccc1OCCCn1ccnc1 (stereo partly specified)
NCI-H522 lung
  GI50: 3.8 µM
  TGI: 16.1 µM
CAKI-1 renal
  GI50: 8.97 µM
  TGI: 26.9 µM
NCI/ADR-RES ovarian
  GI50: 4.51 µM
  TGI: 18.5 µM
SF-539 CNS
  GI50: 7.21 µM
  TGI: 21.7 µM
SW-620 colon
  GI50: 8.23 µM
  TGI: 23.1 µM
HOP-92 NSCLC
  GI50: 6.22 µM
  TGI: 22.8 µM
IGROV1 ovarian
  GI50: 9.13 µM
  TGI: 29.5 µM
COLO 205 colon
  GI50: 4.52 µM
  TGI: 22.7 µM
UO-31 renal
  GI50: 4.36 µM
  TGI: 16.2 µM
786-0 renal
  GI50: 11.6 µM
  TGI: 23.8 µM
CCRF-CEM leukemia
  GI50: 3.35 µM
  TGI: 10 µM
SK-MEL-28 melanoma
  GI50: 6.55 µM
  TGI: 25.9 µM
SF-295 CNS
  GI50: 2.47 µM
  TGI: 7.41 µM
K-562 leukemia
  GI50: 2.69 µM
  TGI: 12.9 µM
NCI-H460 lung
  GI50: 4.68 µM
  TGI: 24.5 µM
OVCAR-3 ovarian
  GI50: 5.17 µM
  TGI: 19.4 µM
SK-MEL-5 melanoma
  GI50: 2.07 µM
  TGI: 7.1 µM
SN12C renal
  GI50: 1.76 µM
  TGI: 8.5 µM
HCT-15 colon
  GI50: 4.03 µM
  TGI: 16.2 µM
TK-10 renal
  GI50: 15.1 µM
  TGI: 31.2 µM
HOP-62 NSCLC
  GI50: 11.8 µM
  TGI: 25.2 µM
SF-268 CNS
  GI50: 13.6 µM
  TGI: 34.4 µM
MALME-3M melanoma
  GI50: 3.11 µM
  TGI: 13.5 µM
MCF7 breast
  GI50: 4.02 µM
  TGI: 19.9 µM
ACHN renal
  GI50: 10.2 µM
  TGI: 21.8 µM
HCT-116 colon
  GI50: 2.7 µM
  TGI: 13.1 µM
A498 renal
  GI50: 11.6 µM
  TGI: 23.9 µM
M14 melanoma
  GI50: 5.87 µM
  TGI: 23.7 µM
NCI-H23 lung
  GI50: 2.22 µM
  TGI: 4.43 µM
MDA-MB-435
  GI50: 5.04 µM
  TGI: 25.6 µM
EKVX NSCLC
  GI50: 17.6 µM
  TGI: 45 µM
SK-OV-3 ovarian
  GI50: 15.7 µM
  TGI: 30.2 µM
OVCAR-8 ovarian
  GI50: 5.93 µM
  TGI: 22.1 µM
BT-549 breast
  GI50: 4.45 µM
  TGI: 33.4 µM
T-47D breast
  GI50: 5.23 µM
  TGI: 19 µM
HS 578T breast
  GI50: 8.45 µM
  TGI: 29.8 µM
NCI-H226 lung
  GI50: 11.2 µM
  TGI: 27.5 µM
DU-145 prostate
  GI50: 11.8 µM
  TGI: 24.1 µM
RXF 393 renal
  GI50: 0.0969 µM
  TGI: 6.94 µM
KM12 colon
  GI50: 3.75 µM
  TGI: 20 µM
SNB-19 CNS
  GI50: 21.6 µM
  TGI: > 100 µM
OVCAR-4 ovarian
  GI50: 12.4 µM
  TGI: > 100 µM
MOLT-4 leukemia
  GI50: 4.09 µM
  TGI: 18.9 µM
MDA-MB-231 breast
  GI50: 5.04 µM
  TGI: 21 µM
UACC-257 melanoma
  GI50: 2.1 µM
  TGI: 7.47 µM
HT29 colon
  GI50: 0.794 µM
  TGI: 11.6 µM
UACC-62 melanoma
  GI50: 5.18 µM
  TGI: 24.9 µM
LOX IMVI melanoma
  GI50: 3.75 µM
  TGI: 14.4 µM
U251 CNS
  GI50: 9.09 µM
  TGI: 21.2 µM
A549 NSCLC
  GI50: 5.32 µM
  TGI: 21.7 µM
PC-3 prostate
  GI50: 4.1 µM
  TGI: 20.2 µM
OVCAR-5 ovarian
  GI50: 18.6 µM
  TGI: 37.9 µM
HL-60(TB) leukemia
  GI50: 2.86 µM
  TGI: 10.2 µM
